Reference: the NIST ThermoML archive (doi:10.1016/j.jct.2019.02.020)

Assay: mn = molality of the nth substance listed, in mol/kg
Details: 100 kPa, Liquid; for viscosity: Falling or rolling sphere viscometry; for mass density: Vibrating tube method

O=S(=O)([O-])[O-].[O]=[V+2] [oxovanadium(IV) sulfate] + O
Details	mass density, 293.15 K [kg/m3]	mass density, 303.15 K [kg/m3]	viscosity, 283.15 K [mPa·s]	viscosity, 288.15 K [mPa·s]	viscosity, 293.15 K [mPa·s]	viscosity, 298.15 K [mPa·s]	viscosity, 303.15 K [mPa·s]	viscosity, 308.15 K [mPa·s]	viscosity, 313.15 K [mPa·s]	viscosity, 318.15 K [mPa·s]
m1 = 0.2501	1034.67	1031.66	1.551	1.347	1.183	1.049	0.9378	0.8442	0.764	0.6958
m1 = 0.5	1069.8	1066.39	1.861	1.61	1.409	1.244	1.108	0.9929	0.897	0.8143
m1 = 0.7507	1104.11	1100.34	2.242	1.932	1.682	1.479	1.311	1.171	1.053	0.9528
m1 = 0.9964	1136.2	1132.1	2.697	2.312	2.005	1.755	1.55	1.379	1.235	1.113
m1 = 1.25	1169.5	1165.09	3.308	2.816	2.429	2.115	1.859	1.646	1.468	1.319
m1 = 1.5	1201.04	1196.42	4.052	3.427	2.936	2.543	2.223	1.959	1.74	1.556
m1 = 1.75	1231.58	1226.74	4.966	4.171	3.548	3.052	2.66	2.334	2.064	1.838
m1 = 2	1261.16	1256.15	6.108	5.092	4.304	3.679	3.18	2.783	2.445	2.168
m1 = 2.249	1289.97	1284.81	7.543	6.238	5.238	4.448	3.824	3.32	2.916	2.575
m1 = 2.499	1317.94	1312.66	9.273	7.615	6.348	5.359	4.58	3.953	3.446	3.029
m1 = 2.75	1345.06	1339.67	11.55	9.405	7.784	6.524	5.544	4.758	4.126	3.608
